Laboratory results as given in patent US20260356851A1, “TRICYCLIC COMPOUNDS AND USES THEREOF” (HUTCHMED LIMITED, priority 2023, published 2026).
Read-outs that look alike come from different tables or passages of the source.

Legend:
Assay type in all cases: cell-based
[1] = biological target: T1, pERK1/2 (Thr202/Tyr204), NCI-1H441 (KRAS G12V) (Homo sapiens, UniProt P01116, G12V); assay: Assay of intracellular pERK1/2 (Thr202/Tyr204) phosphorylation in NCI-H441 cells (KRAS G12V)
T1 construct: pERK1/2 HTRF read-out
T1 sequence (P01116 1-188 isoform P01116-2 G12V): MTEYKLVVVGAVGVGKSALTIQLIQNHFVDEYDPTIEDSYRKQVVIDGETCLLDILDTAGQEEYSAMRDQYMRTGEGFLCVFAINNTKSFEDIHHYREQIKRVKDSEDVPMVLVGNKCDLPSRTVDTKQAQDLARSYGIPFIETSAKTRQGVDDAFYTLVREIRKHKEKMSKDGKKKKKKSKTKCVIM
In short: (§1)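 Cells (10000-12000/well) exposed to 3-fold compound dilutions for 2 days at 37 °C, then lysed; pERK1/2 (Thr202/Tyr204) measured by HTRF with d2 and cryptate antibodies, 665/615 nm ratio.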

[2] = biological target: T2, pERK1/2 (Thr202/Tyr204), NCI-1H358 (KRAS G12C) (Homo sapiens, UniProt P01116, G12C); assay: Assay of intracellular pERK1/2 (Thr202/Tyr204) phosphorylation in NCI-H358 cells (KRAS G12C)
T2 construct: pERK1/2 HTRF read-out
T2 sequence (P01116 1-188 isoform P01116-2 G12C): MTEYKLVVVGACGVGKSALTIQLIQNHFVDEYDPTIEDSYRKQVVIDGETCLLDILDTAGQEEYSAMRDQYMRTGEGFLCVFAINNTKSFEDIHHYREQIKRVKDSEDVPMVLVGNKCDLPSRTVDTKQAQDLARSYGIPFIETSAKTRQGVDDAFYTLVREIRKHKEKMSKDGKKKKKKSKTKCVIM
In short: as §1

[3] = biological target: T3, pERK1/2 (Thr202/Tyr204), PANC-1 (KRAS G121D) (Homo sapiens, UniProt P01116, G12D); assay: Assay of intracellular pERK1/2 (Thr202/Tyr204) phosphorylation in PANC-1 cells (KRAS G12D)
T3 construct: pERK1/2 HTRF read-out
T3 sequence (P01116 1-188 isoform P01116-2 G12D): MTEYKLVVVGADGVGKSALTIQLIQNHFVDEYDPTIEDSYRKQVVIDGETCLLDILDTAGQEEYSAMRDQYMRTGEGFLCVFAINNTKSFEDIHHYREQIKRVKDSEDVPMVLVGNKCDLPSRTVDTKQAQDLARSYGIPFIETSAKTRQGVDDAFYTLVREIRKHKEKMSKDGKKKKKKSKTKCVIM
In short: as §1

[4] = pERK1/2, 2 days, read-out: NCI-H441 (KRAS G12V) IC50
[5] = pERK1/2, 2 days, read-out: NCI-H358 (KRAS G12C) IC50
[6] = pERK1/2, 2 days, read-out: PANC-1 (KRAS G12D) IC50
[7] = read-out: NCI-H441 (KRAS G12V) IC50, pERK1/2, 2 days
[8] = read-out: NCI-H358 (KRAS G12C) IC50, pERK1/2, 2 days
[9] = read-out: PANC-1 (KRAS G12D) IC50, pERK1/2, 2 days

| SMILES | IC50 [1, 4] [nM] | IC50 [2, 5] [nM] | IC50 [3, 6] [nM] | IC50 [1, 7] [nM] | IC50 [2, 8] [nM] | IC50 [3, 9] [nM] |
| --- | --- | --- | --- | --- | --- | --- |
| CC(c1cccnc1N)N1c2nc(OC[C@@]34CCCN3C[C@H](F)C4)nc3c(F)c(-c4cc(O)cc(Cl)c4C4CC4)nc(c23)OC[C@@H]1C (stereo partly drawn) [Compound 268] | 0.5 | 0.2 | 0.4 |  |  |  |
| CC(c1cccnc1N)N1c2nc(OC[C@@H]3C[C@@H](F)CN3C)nc3c(F)c(-c4cc(O)cc5ccc(F)c(F)c45)nc(c23)OC[C@@H]1C (stereo partly drawn) [Compound 281] | 0.5 | 0.2 | 1 |  |  |  |
| CC(c1cccnc1N)N1c2nc(OC[C@@H]3C[C@@H](F)CN3C)nc3c(F)c(-c4cc(N)c(F)c(Cl)c4C(F)(F)F)nc(c23)OC[C@@H]1C (stereo partly drawn) [Compound 289] | 1 | 0.3 | 4 |  |  |  |
| CCc1c(F)ccc2cc(O)cc(-c3nc4c5c(nc(OC[C@@H]6C[C@@H](F)CN6C)nc5c3F)N(C(C)c3cccnc3N)[C@@H](C)CO4)c12 (stereo partly drawn) [Compound 290] | 0.3 | 0.2 | 0.2 |  |  |  |
| CC(c1cccnc1N)N1c2nc(OC[C@@H]3C[C@@H](F)CN3C)nc3c(F)c(-c4cc(O)cc(Cl)c4C4CC4)nc(c23)OC[C@@H]1C (stereo partly drawn) [Compound 291] | 0.3 | 0.1 | 1 |  |  |  |
| CCNC(=O)Oc1cc(Cl)c(C2CC2)c(-c2nc3c4c(nc(OC[C@@]56CCCN5C[C@H](F)C6)nc4c2F)N(C(C)c2cccnc2N)[C@@H](C)CO3)c1 (stereo partly drawn) [Compound 293, (*)3-((9S)-10-(1-(2-aminopyridin-3-yl)ethyl)-4-fluoro-2-(((2R,7aS)-2-fluorotetrahydro-1H-pyrrolizin-7a(5H)-yl)methoxy)-9-methyl-9,10-dihydro-8H-7-oxa-1,3,6,10-tetraazacyclohepta[de]naphthalen-5-yl)-5-chloro-4-cyclopropylphenyl ethylcarbamate acetate] |  |  |  | 1 | 1 | 0.5 |
| CCNC(=O)Oc1cc(-c2nc3c4c(nc(OC[C@@]56CCCN5C[C@H](F)C6)nc4c2F)N(C(C)c2cccnc2N)[C@@H](C)CO3)c2c(CC)c(F)ccc2c1 (stereo partly drawn) [Compound 294] |  |  |  | 2 | 0.8 | 0.5 |
| CNC(=O)Oc1cc(Cl)c(C2CC2)c(-c2nc3c4c(nc(OC[C@@]56CCCN5C[C@H](F)C6)nc4c2F)N(C(C)c2cccnc2N)[C@@H](C)CO3)c1 (stereo partly drawn) [Compound 295] |  |  |  | 1 | 0.4 | 0.5 |
| CCc1c(F)ccc2cc(OC(=O)NC)cc(-c3nc4c5c(nc(OC[C@@]67CCCN6C[C@H](F)C7)nc5c3F)N(C(C)c3cccnc3N)[C@@H](C)CO4)c12 (stereo partly drawn) [Compound 296] |  |  |  | 2 | 0.5 | 0.3 |
| CCc1c(F)ccc2cc(O)cc(-c3nc4c5c(nc(OC[C@@]67CCCN6C[C@H](F)C7)nc5c3F)N(C(C)c3ccccc3N)[C@@H](C)CO4)c12 (stereo partly drawn) [Compound 298] | > 100 | > 100 | > 100 |  |  |  |
| CCc1c(F)ccc2cc(O)cc(-c3nc4c5c(nc(OC[C@@]67CCCN6C[C@H](F)C7)nc5c3F)N(C(C)c3cccnc3NC(=O)[C@H](C)N)[C@@H](C)CO4)c12 (stereo partly drawn) [Compound 300] | 2 | 0.6 | 0.5 |  |  |  |
| CCc1c(F)ccc2cc(OC(=O)N(C)C)cc(-c3nc4c5c(nc(OC[C@@]67CCCN6C[C@H](F)C7)nc5c3F)N(C(C)c3cccnc3N)[C@@H](C)CO4)c12 (stereo partly drawn) [Compound 301] |  |  |  | 72 | 25 | 77 |
| CCc1c(F)ccc2cc(OC(=O)N3CCC3)cc(-c3nc4c5c(nc(OC[C@@]67CCCN6C[C@H](F)C7)nc5c3F)N(C(C)c3cccnc3N)[C@@H](C)CO4)c12 (stereo partly drawn) [Compound 304] |  |  |  | 46 | 21 | 55 |
| CCc1c(F)ccc2cc(OC(=O)N3CCOCC3)cc(-c3nc4c5c(nc(OC[C@@]67CCCN6C[C@H](F)C7)nc5c3F)N(C(C)c3cccnc3N)[C@@H](C)CO4)c12 (stereo partly drawn) [Compound 307] |  |  |  | 23 | 13 | 16 |
| CC(c1cccn2ccnc12)N1c2nc(OC[C@@]34CCCN3C[C@H](F)C4)nc3c(F)c(-c4cc(O)cc5ccc(F)c(F)c45)nc(c23)OC[C@@H]1C (stereo partly drawn) [Compound 310, (*)5,6-Difluoro-4-((9S)-4-fluoro-2-(((2R,7aS)-2-fluorotetrahydro-1H-pyrrolizin-7a(5H)-yl)methoxy)-10-(1-(imidazo[1,2-a]pyridin-8-yl)ethyl)-9-methyl-9,10-dihydro-8H-7-oxa-1,3,6,10-tetraazacyclohepta[de]naphthalen-5-yl)naphthalen-2-ol] |  |  |  | > 100 | > 100 | > 100 |
| Cc1cc2[nH]ncc2c(-c2nc3c4c(nc(OC[C@@]56CCCN5C[C@H](F)C6)nc4c2F)N(C(C)c2cccnc2N)[C@@H](C)CO3)c1C1CC1 (stereo partly drawn) [Compound 317] | 0.8 | 0.4 | 0.3 |  |  |  |
| CC(c1cccnc1N)N1c2nc(OC[C@@]34CCCN3C[C@H](F)C4)nc3c(F)c(-c4c(Cl)ccc5[nH]ncc45)nc(c23)OC[C@@H]1C (stereo partly drawn) [Compound 321] | 7 | 1 | 36 |  |  |  |

The next lines start with results.

| IC50 [1, 4] [nM] | IC50 [2, 5] [nM] | IC50 [3, 6] [nM] | SMILES | IC50 [1, 7] [nM] | IC50 [2, 8] [nM] | IC50 [3, 9] [nM] |
| --- | --- | --- | --- | --- | --- | --- |
| 1 | 0.5 | 3 | CC(c1cccnc1N)N1c2nc(OC[C@@]34CCCN3C[C@H](F)C4)nc3c(F)c(-c4c(C(F)(F)F)ccc5[nH]ncc45)nc(c23)OC[C@@H]1C (stereo partly drawn) [Compound 297] |  |  |  |
| > 100 | > 100 | > 100 | C/C=C/c1cc(N)cc(-c2nc3c4c(nc(OC[C@@]56CCCN5C[C@H](F)C6)nc4c2F)N(C(C)c2cccnc2N)[C@@H](C)CO3)c1C(F)(F)F (stereo partly drawn) [Compound 302] |  |  |  |
| 0.6 | 0.3 | 0.3 | CC(c1cccnc1N)N1c2nc(OC[C@@]34CCCN3C[C@H](F)C4)nc3c(F)c(-c4cc(N)cc(Cl)c4C4CC4)nc(c23)OC[C@@H]1C (stereo partly drawn) [Compound 305] |  |  |  |
| 40 | 16 | 93 | CC(c1cccnc1N)N1c2nc(OC[C@@]34CCCN3C[C@H](F)C4)nc3c(F)c(-c4cc(N)cc(Cl)c4)nc(c23)OC[C@@H]1C (stereo partly drawn) [Compound 306] |  |  |  |
| 0.8 | 0.5 | 6 | Cc1nc(N)cc(-c2nc3c4c(nc(OC[C@@]56CCCN5C[C@H](F)C6)nc4c2F)N(C(C)c2cccnc2N)[C@@H](C)CO3)c1C(F)(F)F (stereo partly drawn) [Compound 311] |  |  |  |
| 0.4 | 0.3 | 0.3 | Cc1cc2[nH]ncc2c(-c2nc3c4c(nc(OC[C@@]56CCCN5C[C@H](F)C6)nc4c2F)N(C(C)c2cccnc2N)[C@@H](C)CO3)c1C(F)(F)F (stereo partly drawn) [Compound 312] |  |  |  |
| 1 | 0.5 | 3 | Cc1cc2[nH]ncc2c(-c2nc3c4c(nc(OC[C@@]56CCCN5C[C@H](F)C6)nc4c2F)N(C(C)c2cccnc2N)[C@@H](C)CO3)c1Cl (stereo partly drawn) [Compound 313] |  |  |  |
| > 100 | > 100 | > 100 | Cc1cc2cn[nH]c2cc1-c1nc2c3c(nc(OC[C@@]45CCCN4C[C@H](F)C5)nc3c1F)N(C(C)c1cccnc1N)[C@@H](C)CO2 (stereo partly drawn) [Compound 314] |  |  |  |
| 4 | 2 | 6 | CC(c1cccnc1N)N1c2nc(OC[C@@]34CCCN3C[C@H](F)C4)nc3c(F)c(-c4cc(O)cc(Cl)c4C(F)(F)F)nc(c23)OC[C@@H]1C (stereo partly drawn) [Compound 315] |  |  |  |
| > 100 | > 100 | > 100 | COc1cc2cn[nH]c2cc1-c1nc2c3c(nc(OC[C@@]45CCCN4C[C@H](F)C5)nc3c1F)N(C(C)c1cccnc1N)[C@@H](C)CO2 (stereo partly drawn) [Compound 316] |  |  |  |
| 7 | 1 | 37 | Cc1ccc2[nH]ncc2c1-c1nc2c3c(nc(OC[C@@]45CCCN4C[C@H](F)C5)nc3c1F)N(C(C)c1cccnc1N)[C@@H](C)CO2 (stereo partly drawn) [Compound 318] |  |  |  |
| 1 | 0.9 | 10 | Cc1ccc2[nH]nc(C)c2c1-c1nc2c3c(nc(OC[C@@]45CCCN4C[C@H](F)C5)nc3c1F)N(C(C)c1cccnc1N)[C@@H](C)CO2 (stereo partly drawn) [Compound 319] |  |  |  |
| 4 | 0.9 | 28 | CC(c1cccnc1N)N1c2nc(OC[C@@]34CCCN3C[C@H](F)C4)nc3c(F)c(-c4ccc(F)c5sc(N)nc45)nc(c23)OC[C@@H]1C (stereo partly drawn) [Compound 320] |  |  |  |
| 97 | 21 | > 100 | CC(c1cccnc1N)N1c2nc(OC[C@@]34CCCN3C[C@H](F)C4)nc3c(F)c(-c4cc(O)cc(Cl)c4C#N)nc(c23)OC[C@@H]1C (stereo partly drawn) [Compound 322] |  |  |  |
| 2 | 0.6 | 10 | CC(c1cccnc1N)N1c2nc(OC[C@@]34CCCN3C[C@H](F)C4)nc3c(F)c(-c4c(C(F)(F)F)cnc5[nH]ccc45)nc(c23)OC[C@@H]1C (stereo partly drawn) [Compound 323] |  |  |  |
| > 100 | 28 | > 100 | Cc1c(-c2nc3c4c(nc(OC[C@@]56CCCN5C[C@H](F)C6)nc4c2F)N(C(C)c2cccnc2N)[C@@H](C)CO3)ccc2cn[nH]c12 (stereo partly drawn) [Compound 324] |  |  |  |
| 44 | 28 | > 100 | CC(c1cccnc1N)N1c2nc(OC[C@@]34CCCN3C[C@H](F)C4)nc3c(F)c(-c4cc5[nH]ncc5cc4C(F)(F)F)nc(c23)OC[C@@H]1C (stereo partly drawn) [Compound 325] |  |  |  |
